Experimental data: ChEMBL document CHEMBL3351573, “Synthesis and cholinesterase inhibition of cativic acid derivatives” (Bioorg Med Chem, 2014)

How the values were obtained:
[1] = Selectivity index, ratio of IC50 for horse serum BChE to IC50 for Torpedo californica AChE
[2] = target: T1, Acetylcholinesterase (Torpedo californica, UniProt P04058)
Description: Inhibition of Torpedo californica AChE by spectrophotometry based Ellman's method

[3] = target: Cholinesterase (Equus caballus, UniProt P81908)
Description: Inhibition of horse serum BChE by spectrophotometry based Ellman's method

[4] = Cytotoxicity against human SH-SY5Y cells assessed as change in cell morphology at 1 to 5 uM after 1 hr to 24 hrs by phase contrast microscopy; type: cell-based
[5] = target: T1, Acetylcholinesterase; assay: Mixed type inhibition of Torpedo californica AChE by Lineweaver-Burk plot; set-up: species or system Tetronarce californica
[6] = target: Acetylcholinesterase (Homo sapiens) (UniProt P22303); assay: Inhibition of AChE in human SH-SY5Y cells assessed as enzyme activity at 1 uM after 1 hr by Ellman's method; type: cell-based; set-up: scale not given: the % may be the effect or the level left
[7] = Cytotoxicity against human SH-SY5Y cells assessed as LDH release at 1 uM after 1 hr (reference value: -0.78 +/- 3.50%); type: cell-based
[8] = Cytotoxicity against human SH-SY5Y cells assessed as LDH release at 5 uM after 24 hrs (reference value: 0.02 +/- 0.35%); type: cell-based
[9] = Cytotoxicity against human SH-SY5Y cells assessed as LDH release at 5 uM after 1 hr (reference value: -0.78 +/- 3.50%); type: cell-based
[10] = target: Acetylcholinesterase (Homo sapiens) (UniProt P22303); assay: Inhibition of AChE in human SH-SY5Y cells assessed as enzyme activity at 5 uM after 1 hr by Ellman's method; type: cell-based; set-up: scale not given: the % may be the effect or the level left
[11] = Cytotoxicity against human SH-SY5Y cells assessed as LDH release at 1 uM after 24 hrs (reference value: 0.02 +/- 0.35%); type: cell-based

Sequence of Cholinesterase (P81908 whole entry): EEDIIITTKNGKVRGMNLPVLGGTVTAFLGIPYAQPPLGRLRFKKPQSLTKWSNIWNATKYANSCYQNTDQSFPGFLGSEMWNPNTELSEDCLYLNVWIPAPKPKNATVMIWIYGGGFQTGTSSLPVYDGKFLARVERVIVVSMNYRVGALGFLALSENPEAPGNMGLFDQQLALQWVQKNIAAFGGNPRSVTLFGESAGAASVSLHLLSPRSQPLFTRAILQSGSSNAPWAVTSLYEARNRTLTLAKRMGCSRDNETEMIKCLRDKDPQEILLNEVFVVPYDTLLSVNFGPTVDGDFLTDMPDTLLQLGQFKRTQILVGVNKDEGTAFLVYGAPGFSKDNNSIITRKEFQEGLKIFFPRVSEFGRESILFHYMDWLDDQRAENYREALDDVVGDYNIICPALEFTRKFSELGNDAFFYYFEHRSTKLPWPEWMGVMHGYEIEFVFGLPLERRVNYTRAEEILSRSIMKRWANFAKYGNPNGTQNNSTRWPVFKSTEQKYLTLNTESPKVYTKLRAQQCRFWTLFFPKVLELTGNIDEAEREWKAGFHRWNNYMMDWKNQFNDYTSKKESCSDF
T1 sequence (P04058 whole entry): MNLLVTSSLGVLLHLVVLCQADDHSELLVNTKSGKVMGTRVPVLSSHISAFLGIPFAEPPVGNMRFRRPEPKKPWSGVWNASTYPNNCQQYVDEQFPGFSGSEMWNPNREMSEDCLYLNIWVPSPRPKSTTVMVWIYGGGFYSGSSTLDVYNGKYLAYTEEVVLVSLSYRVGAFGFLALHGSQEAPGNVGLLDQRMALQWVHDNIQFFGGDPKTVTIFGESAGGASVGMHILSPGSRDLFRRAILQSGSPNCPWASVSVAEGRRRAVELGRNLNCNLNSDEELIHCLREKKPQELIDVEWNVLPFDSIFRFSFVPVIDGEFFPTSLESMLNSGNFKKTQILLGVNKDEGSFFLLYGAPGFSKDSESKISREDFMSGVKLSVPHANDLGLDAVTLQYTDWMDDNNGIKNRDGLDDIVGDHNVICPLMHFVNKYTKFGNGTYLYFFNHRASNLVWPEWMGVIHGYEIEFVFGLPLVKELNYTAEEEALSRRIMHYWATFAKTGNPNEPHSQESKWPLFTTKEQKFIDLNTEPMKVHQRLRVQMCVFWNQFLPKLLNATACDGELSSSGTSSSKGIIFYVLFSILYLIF
Sequence of Acetylcholinesterase (Homo sapiens) (P22303 whole entry): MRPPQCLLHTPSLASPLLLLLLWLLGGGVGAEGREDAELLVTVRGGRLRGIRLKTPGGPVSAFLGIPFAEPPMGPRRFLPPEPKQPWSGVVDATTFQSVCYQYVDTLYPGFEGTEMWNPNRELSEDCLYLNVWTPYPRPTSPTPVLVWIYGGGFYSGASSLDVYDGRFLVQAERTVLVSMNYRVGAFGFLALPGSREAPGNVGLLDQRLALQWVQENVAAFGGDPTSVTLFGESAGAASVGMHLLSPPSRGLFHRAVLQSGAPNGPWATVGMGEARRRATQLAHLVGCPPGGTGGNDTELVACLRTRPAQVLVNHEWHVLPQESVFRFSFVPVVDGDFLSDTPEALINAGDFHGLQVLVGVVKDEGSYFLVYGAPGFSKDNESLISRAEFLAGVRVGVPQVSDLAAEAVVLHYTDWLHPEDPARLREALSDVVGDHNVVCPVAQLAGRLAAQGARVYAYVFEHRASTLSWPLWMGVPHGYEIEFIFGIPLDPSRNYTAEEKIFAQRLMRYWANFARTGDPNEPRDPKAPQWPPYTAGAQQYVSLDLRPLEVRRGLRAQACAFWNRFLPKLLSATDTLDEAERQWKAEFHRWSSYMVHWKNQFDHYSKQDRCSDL

CCN(CC)CCCOC(=O)C[C@@H](C)CC[C@H]1C(CO)=CC[C@H]2C(C)(C)CCC[C@]12C
Ratio IC50 [1]: 1.5 | IC50 [2]: 11.8 µM | IC50 [3]: 18.1 µM

C[C@@H](CC[C@H]1C(CO)=CC[C@H]2C(C)(C)CCC[C@]12C)CC(=O)OCCCN1CCCCC1
Ratio IC50 [1]: 5.6 | IC50 [2]: 6.2 µM | IC50 [3]: 34.7 µM

C[C@@H](CC[C@H]1C(CO)=CC[C@H]2C(C)(C)CCC[C@]12C)CC(=O)OCCCCCCN1CCCC1
Ratio IC50 [1]: 0.8 | IC50 [2]: 13.5 µM | IC50 [3]: 10.6 µM

CCN(CC)CCCCOC(=O)C[C@@H](C)CC[C@H]1C(CO)=CC[C@H]2C(C)(C)CCC[C@]12C
Ratio IC50 [1]: 1.8 | IC50 [2]: 9.4 µM | IC50 [3]: 23.6 µM

CCN(CC)CCCCCOC(=O)C[C@@H](C)CC[C@H]1C(CO)=CC[C@H]2C(C)(C)CCC[C@]12C
Ratio IC50 [1]: 2 | IC50 [2]: 13.8 µM | IC50 [3]: 27.2 µM

C[C@@H](CC[C@H]1C(CO)=CC[C@H]2C(C)(C)CCC[C@]12C)CC(=O)OCCCCN1CCCC1
Ratio IC50 [1]: 3.2 | Activity [4]: Non-toxic | IC50 [2]: 3.2 µM | Ki [5]: 4.6 µM | Activity [6]: 67.3% | Activity [7]: 1.34% | Activity [8]: 0.11% | Activity [9]: 2.33% | Activity [10]: 30.4% | IC50 [3]: 10.3 µM | Activity [11]: -0.02%

C[C@@H](CC[C@H]1C(CO)=CC[C@H]2C(C)(C)CCC[C@]12C)CC(=O)OCCCCCN1CCCCC1
Ratio IC50 [1]: 1.7 | IC50 [2]: 14.7 µM | IC50 [3]: 24.8 µM

C[C@@H](CC[C@H]1C(CO)=CC[C@H]2C(C)(C)CCC[C@]12C)CC(=O)OCCCN1CCCC1
Ratio IC50 [1]: 1.3 | IC50 [2]: 33.8 µM | IC50 [3]: 43.8 µM

C[C@@H](CC[C@H]1C(CO)=CC[C@H]2C(C)(C)CCC[C@]12C)CC(=O)OCCN1CCOCC1
IC50 [2]: > 50 µM | IC50 [3]: > 50 µM

C[C@@H](CC[C@H]1C(CO)=CC[C@H]2C(C)(C)CCC[C@]12C)CC(=O)OCCCCCCN1CCCCC1
Ratio IC50 [1]: 0.7 | IC50 [2]: 14.5 µM | IC50 [3]: 10.5 µM

C[C@@H](CC[C@H]1C(CO)=CC[C@H]2C(C)(C)CCC[C@]12C)CC(=O)OCCN1CCCC1
Ratio IC50 [1]: < 0.3 | IC50 [2]: > 50 µM | IC50 [3]: 17 µM

C[C@@H](CC[C@H]1C(CO)=CC[C@H]2C(C)(C)CCC[C@]12C)CC(=O)OCCCCCN1CCOCC1
IC50 [2]: > 50 µM | IC50 [3]: > 50 µM

C[C@@H](CC[C@H]1C(CO)=CC[C@H]2C(C)(C)CCC[C@]12C)CC(=O)OCCCCCCN1CCOCC1
IC50 [2]: > 50 µM | IC50 [3]: > 50 µM

C[C@@H](CC[C@H]1C(CO)=CC[C@H]2C(C)(C)CCC[C@]12C)CC(=O)OCCCCCN1CCCC1
Ratio IC50 [1]: 4.1 | IC50 [2]: 5.5 µM | IC50 [3]: 22.1 µM

C[C@@H](CC[C@H]1C(CO)=CC[C@H]2C(C)(C)CCC[C@]12C)CC(=O)OCCCCN1CCOCC1
IC50 [2]: > 50 µM | IC50 [3]: > 50 µM

C[C@@H](CC[C@H]1C(CO)=CC[C@H]2C(C)(C)CCC[C@]12C)CC(=O)OCCCCN1CCCCC1
Ratio IC50 [1]: 2.5 | IC50 [2]: 15 µM | IC50 [3]: 37.1 µM

C[C@@H](CC[C@H]1C(CO)=CC[C@H]2C(C)(C)CCC[C@]12C)CC(=O)OCCCN1CCOCC1
IC50 [2]: > 50 µM | IC50 [3]: > 50 µM

CCN(CC)CCCCCCOC(=O)C[C@@H](C)CC[C@H]1C(CO)=CC[C@H]2C(C)(C)CCC[C@]12C
Ratio IC50 [1]: 0.9 | IC50 [2]: 17.8 µM | IC50 [3]: 15.2 µM

CCN(CC)CCOC(=O)C[C@@H](C)CC[C@H]1C(CO)=CC[C@H]2C(C)(C)CCC[C@]12C
Ratio IC50 [1]: < 0.8 | IC50 [2]: > 50 µM | IC50 [3]: 39.9 µM

C[C@@H](CC[C@H]1C(CO)=CC[C@H]2C(C)(C)CCC[C@]12C)CC(=O)OCCN1CCCCC1
IC50 [2]: > 50 µM | IC50 [3]: > 50 µM

C[C@@H](CC[C@H]1C(CO)=CC[C@H]2C(C)(C)CCC[C@]12C)CC(=O)O
Ratio IC50 [1]: 8.1 | IC50 [2]: 21.1 µM | IC50 [3]: 171 µM
